Laboratory results from US20110257251A1, “TELOMERASE INHIBITORS AND METHODS OF USE THEREOF” (PRESIDENTS AND FELLOWS OF HARVARD COLLEGE, priority 2008, published 2011).
Where two headings read alike, the source gives them in different places. Strand notation (5' to 3'): a small letter for the sugar, then the base; units joined by * are phosphorothioate-linked, units joined directly phosphodiester-linked; [ ] holds rarer units or linkages, { } end groups; capitals alone tell only the bases. m = 2'-O-methyl

Columns and labels:
[1] = test system: telomerase activity in DU145 cells; assay: Cell-based TRAP assay in transfected DU145 cells; parameters: species or system human; settings: 165 nM RIPtide, 24 h, Lipofectamine 2000, then TRAP
Description: Having established that the modified RIPtides retain activity in vitro, several of these were tested in cell-based assays. DU145 prostate cancer cells were treated with 165 nM RIPtide for 24 h. The cells were subsequently lysed and telomerase activity was assessed by the TRAP assay (FIG. 8D). As a positive control, a previously reported 13-mer 2′-O-methyl oligonucleotide targeting the template region of hTR was employed (Pitts, A. E., Corey, D. R., Proc. Natl. Acad. Sci. USA 95, 11549-111554 (1998)). Lipofectamine™ was used to ensure optimal delivery, and it remains to be established whether cationic lipid delivery is necessary for 10-mers. In particular, there is evidence that relatively short oligonucleotides containing phosphorothioate linkages targeting telomerase show optimal cellular uptake properties (Chen, Z., et al., J. Med. Chem. 45, 5423-5425 (2002)).
RIPtides were synthesized, purified with PolyPak-II C18 reverse phase cartridges, and constitutionally verified by MALDI-TOF MS. Telomerase-positive cells were either purchased from ATCC (DU145 and HEK293) or provided in the Chemicon TRAP kit (HeLa). Cell extracts were prepared from cell pellets by detergent lysis with 1×CHAPS lysis buffer (Chemicon). RIPtides were incubated with cell extract for 1 h at 37° C. prior to the TRAP assays. Assays were performed following a protocol that uses fluorescence as a quantitation system, as previously described by Herbert et al. (Nat. Protocols 1, 1583-1590 (2006)). Briefly, extension of a fluorescent artificial substrate by telomerase was carried out for 30 minutes at 30° C., followed by amplification with 30 PCR cycles ([…] 30 s, 59° C. 30 s, 72° C. 1 min). Telomerase extension products were separated on 10% native PAGE gels, and bands were visualized by fluorescence imaging and quantified using ImageQuant™ (GE Healthcare). […] Cells were harvested, counted, lysed with 1×CHAPS lysis buffer and normalized by total protein concentration as determined by the Bradford assay. […]

mutated full length hTR = assay: Fluorescence polarization compensatory mutation study with mutated full-length hTR; assay type: binding, human; settings: mutant RIPtide and mutant hTR
Excerpt: Without wishing to be limited or constrained by theory, the RIPtide binding sites on hTR had been inferred assuming Watson-Crick complementarity between the RIPtide and target. To verify experimentally that the RIPtides were actually recognizing the predicted regions on hTR, tandem point mutations were introduced into the central portion of the RIPtides and compensatory sequence changes into hTR. The binding behavior of the “wild type” and “mutant” RIPtides to wild-type and compensatory mutant hTR targets was analyzed by FP (FIG. 7). Four different hTR transcripts were generated in which two consecutive nucleotides at the central position of each cluster, the expected target site (FIG. 6A, bases indicated in bold), were mutated to their Watson-Crick complementary bases (G→C, C→G and U→A). […] Similarly, binding was abolished or reduced when mutated RIPtides were incubated with wild-type hTR (FIG. 7C). […] Perhaps this lack of restoration in certain cases reflects a local change in the availability or in the folding energy of the single-stranded elements as a result of the mutation. Taken together, this mutational specificity supports the notion, without wishing to be bound by theory, that the RIPtides indeed target telomerase at the corresponding sequence-complementary sites.
For mapping of hTR-RIPtide binding sites, site-directed mutagenesis on the pRc/CMV plasmid (Collins lab, UC Berkeley) was performed using a QuickChange-XL mutagenesis kit (Stratagene) and confirmed by sequencing. Full-length hTR transcripts incorporating two consecutive base mutations (to their Watson-Crick complementary bases) were generated for fluorescence polarization studies.

[2] = test system: telomerase ribonucleoprotein complex; assay: TRAP assay in cell extracts (HeLa, DU145, HEK293); assay type: biochemical, human; settings: for IC50 in TRAP (in words): cell extracts (HeLa, DU145, HEK293)
Excerpt: Having discovered a panel of RIPtides that bind four different regions on the naked RNA component of telomerase, it was next determined whether these molecules were capable of inhibiting the activity of the telomerase ribonucleoprotein complex in an in vitro setting. The Telomeric Repeat Amplification Protocol (TRAP) assay (Kim, N. W. et al., Science 266, 2011-2015 (1994)) was therefore employed. The TRAP assay is a PCR-based protocol that has found widespread use in determining telomerase activity in human cell extracts and also in evaluating the in vitro potency of telomerase inhibitors. Using a version of the TRAP assay (Cy5-TRAP) that utilizes fluorescence detection (Herbert, B.-S. et al., Nat. Protocols 1, 1583-1590 (2006)). IC50 values for several RIPtides were determined using cell extracts from two human tumor cell lines (HeLa and DU145) and an immortalized embryonic cell line (HEK293). Initially, a small library of RIPtides representing several clusters identified in the microarray screen was screened and validated by FP experiments on hTR, using telomerase activity present in HeLa cell extracts. The majority of these were 8-mers, but some 7-mers and 6-mers were also tested; all were fully complementary to the target hTR sequence with Kd's for hTR below 300 nM. Several phosphorothioate variations of the initial library were additionally tested, incorporating phosphorothioate linkages either at the two terminal positions of the RIPtide or at every position.
Inhibition of telomerase activity in vitro was determined using TRAP, a PCR-based assay for telomerase activity in cell extracts (B.-S. Herbert, Nat. Protocols, 1, 1583-1590 (2006)). Unlabeled oligonucleotide sequences found to bind by FP were pre-incubated with cell extracts (HeLa, DU 145, and 293), and activity was measured by TRAP.
RIPtides were synthesized, purified with PolyPak-II C18 reverse phase cartridges, and constitutionally verified by MALDI-TOF MS. Telomerase-positive cells were either purchased from ATCC (DU145 and HEK293) or provided in the Chemicon TRAP kit (HeLa). Cell extracts were prepared from cell pellets by detergent lysis with 1×CHAPS lysis buffer (Chemicon). RIPtides were incubated with cell extract for 1 h at 37° C. prior to the TRAP assays. Assays were performed following a protocol that uses fluorescence as a quantitation system, as previously described by Herbert et al. (Nat. Protocols 1, 1583-1590 (2006)). Briefly, extension of a fluorescent artificial substrate by telomerase was carried out for 30 minutes at 30° C., followed by amplification with 30 PCR cycles ([…] 30 s, 59° C. 30 s, 72° C. 1 min). Telomerase extension products were separated on 10% native PAGE gels, and bands were visualized by fluorescence imaging and quantified using ImageQuant™ (GE Healthcare). Concentrations of RIPtides ranged from 0.6 nM to 60 μM, and for the initial screening, experiments were performed in duplicate using HeLa cell extracts. For active RIPtides, experiments were repeated using DU145 (prostate cancer) and HEK293 cell extracts. Several controls were included in the design of the experiments: a positive control (untreated cell lysate), negative controls (buffer only, heat inactivated and RNase treated cell extracts), and PCR amplification control (60 μM of RIPtide added after telomerase elongation and before PCR step). For cell-based TRAP assays, DU145 cells were transfected with 0.2% Lipofectamine™ 2000 (Invitrogen) and 165 nM RIPtide for a period of 24 h. Cells were harvested, counted, lysed with 1×CHAPS lysis buffer and normalized by total protein concentration as determined by the Bradford assay. Assays were performed in triplicate as described above.
The inhibitory potential of the RIPtides was initially assessed in HeLa cell extracts, in duplicate experiments, using a 600 pM-60 μM concentration range. Experiments with selected RIPtides were repeated for a concentration range of 0.6 pM-60 μM. […]

full-length hTR = assay: Fluorescence polarization binding to full-length hTR; parameters: species or system human; settings: for Kd: full-length hTR construct, SEQ ID NO: 1 variants, read-out: Kp from FP; for affinity for full-length hTR (in words): FP
Excerpt: To assess and quantify the ability of the RIPtide hits from microarray screening to bind the target RNA in solution, a panel of RIPtides representing variations on the consensus sequences of top hits within each cluster was selected. These RIPtides were synthesized with a 3-carboxyfluorescein (FAM) label attached to the 3′-end, the same as had been attached to the surface of the microarray. Fluorescence polarization (FP) was then used to measure quantitatively the equilibrium dissociation constant (Kd) values of the FAM-labeled RIPtides, using the same folded target RNAs and buffer system as had been employed in the microarray screen.
It is possible, without wishing to be limited by a theory, that RIPtide binding sites present or available in truncated forms of hTR may not be present or available in full-length hTR. Five RIPtides were therefore selected that had been validated for binding PKWT-1 in solution, and their binding affinity to full-length hTR was measured using FP. […] Were the J2b/3 loop involved in tertiary interactions in hTR, RIPtide binding might have been lost, and therefore it was surmised that the loop remains relatively unengaged in such interactions when present in naked hTR.
The remainder of the RIPtide hits from primary microarray screens of PK123 and PK159 in solution were not validated, but instead validation using full-length hTR was analyzed. Representative examples from each of the clusters were selected (FIG. 4D) and the binding affinity of these RIPtides for full-length hTR was quantified (FIG. 6A). In this way, RIPtides from clusters III, IV and V that bind full-length hTR were identified. Taken together, the collection of hTR-validated RIPtides maps out a series of sites on the template/pseudoknot that are especially conducive to targeting by a 2′-O-methyl polyribonucleotide; with each site corresponding to a cluster of sequence-complementary RIPtides (FIG. 6B, shaded according to sequence in FIG. 6A). Specifically, these hyper-targetable regions are the J2b/3 loop and P3 stem (Cluster II), the J2a/2b bulge through part of the P2a stem (Cluster III), the J2a/3 loop (Cluster IV), and the Template region (Cluster V).
FAM (6-carboxyfluorescein)-labeled oligonucleotides were synthesized on a 3′-(6-Fluorescein) CPG support (Glen Research) using a MerMade 12 (BioAutomation) DNA synthesizer, purified with Poly Pak-II (Glen Research) cartridges, and compositionally verified by MALDI-TOF MS. Unlabeled full length hTR was prepared by in vitro transcription in the presence of T7 RNA polymerase under the conditions described earlier for RIPtide screening, but without aminoallyl-UTP addition. After DNase I treatment and ethanol precipitation, hTR was purified using the RNeasy Midi kit (Qiagen). Unlabeled PKWT and PKWT-1 were purchased from Dharmacon, and were PAGE-purified and desalted. FAM-labeled RIPtides (5 nM) were titrated with increasing concentrations of folded RNA (300 pM-3 μM, typically). Solutions containing RIPtide and RNA were incubated at 37° C. for 2 h, after which fluorescence polarization was recorded at room temperature using a SpectraMax M5 (Molecular Devices) plate reader. Polarization (expressed in millipolarization units) was monitored at […] (cutoff 515 nm). […] Dissociation constants were determined using Kaleidagraph 3.5 (Synergy Software). […]

[3] = cell extracts (HeLa, DU 145, and 293), SEQ ID NO: 1 variants, read-out: IC50 from TRAP

GGUGGAAGGC (as printed in the source, key not given here) [IV-5]
telomerase inhibition in cultured cells [1]: marked inhibition

AGUUAGG (all 2'-O-methyl, backbone not given here) [V-3]
restoration of binding with compensatory mutations in both RIPtide and hTR (mutated full length hTR): restoration was observed

GGUGGAAGGC (as printed in the source, key not given here) [IV-4]
IC50 in TRAP (in words) [2]: low nanomolar range

G*C*C*U*C*C*A*G (mG*mC*mC*mU*mC*mC*mA*mG) [G*C*C*U*C*C*A*G LNA]
IC50 [2, 3]: ~6000 nM

GCCUCCA*G (mGmCmCmUmCmCmA*mG)
IC50 [2, 3]: ~16000 nM | Kd (full-length hTR): 8.9 ± 5.6 nM

GGUGGAAGGC (as printed in the source, key not given here)
IC50 ([2]; cell extracts, in vitro, read-out: IC50, telomerase inhibition in TRAP): ~1 nM

GGUGCCAGGC (all 2'-O-methyl, backbone not given here; further chemistry not fully specified) [IV-3 mismatch, reference compound]
telomerase inhibition in cultured cells [1]: abolished inhibition

CAGCGAGA (all 2'-O-methyl, backbone not given here) [II-1]
restoration of binding with compensatory mutations in both RIPtide and hTR (mutated full length hTR): Restoration was not observed

5′-GGUGGAAGGC-3′ (2'-O-methyl sugars, as printed in the source, key not given here) [IV-3]
telomerase inhibition in cultured cells [1]: no significant telomerase inhibition | IC50 in TRAP (in words) [2]: low nanomolar range

G*CCUCCA*G (mG*mCmCmUmCmCmA*mG; further chemistry not given here)
Kd (full-length hTR): 37.3 ± 15.2 nM

G*CCUCCAG (mG*mCmCmUmCmCmAmG)
IC50 [2, 3]: ~9000 nM | Kd (full-length hTR): 8.8 ± 2.5 nM

5′-GCCUCCAG-3′ (chemistry not given here) [SEQ ID NO: 1]
telomerase inhibition in TRAP assays (in words) ([2]; cell extracts): showing inhibition of activity | IC50 in TRAP (in words) [2]: micromolar range | affinity for full-length hTR (in words) (full-length hTR): confirmed

GUCAGCGA (all 2'-O-methyl, backbone not given here) [II-2]
restoration of binding with compensatory mutations in both RIPtide and hTR (mutated full length hTR): restoration was observed | affinity for full-length hTR (in words) (full-length hTR): improvement in affinity
